Data reported in patent US9192680B2, “Pharmaceutical compounds” (APOSENSE LTD., priority 2010, dated 2015).
Read-outs that look alike come from different tables or passages of the source.

Experiments:
[1] = Pharmacokinetics after single intravenous administration; assay type: in vivo, beagle dogs; conditions: 6 mg/kg single i.v.
Description: The stock solution was diluted 10-fold in 10% bovine serum albumin solution in 0.1M sodium phosphate buffer (pH 5.8) and mixed by vortex until a homogeneous emulsion was obtained. […] Fresh formulations of both drugs were prepared prior to each administration, and the drugs were administrated by a slow bolus injection within approximately 3 minutes, at a dose of 6 mg/kg (1.2 ml/kg), adjusted to the individual animal body weight.
Plasma was separated by centrifugation, and stored at −70° C. until HPLC analysis. WinNonlin™ software was used for the analysis of the pharmacokinetic data.

[2] = tested on: Mia-PaCa pancreatic carcinoma tumors; test: Xenograft model of pancreatic carcinoma
[3] = tested on: H-82 SCLC tumors; test: Xenograft model of small-cell lung carcinoma
[4] = Maximal tolerated dose (MTD); conditions: female, athymic nude, mouse, in vivo, ip; intraperitoneally, once a week for three weeks, nude mice; read-out: maximal tolerate dose (MTD)
Description: Drug treatment was initiated on day 11, when tumors reached an average volume of 119 mm^3 ATT-11T was administered in a vehicle comprising 5% DMSO, 5% NMP, 10% ETOH, 40% PEG-400 and 40% PG. […] . […] The drugs were administered intraperitoneally.

[5] = tested on: SW-620 colorectal carcinoma tumors; assay type: in vivo, athymic nude mice; conditions: for tumor growth inhibition: one week after the last administration
Description: Drug treatment was initiated on day 11, when tumors reached an average volume of 119 mm^3 ATT-11T was administered in a vehicle comprising 5% DMSO, 5% NMP, 10% ETOH, 40% PEG-400 and 40% PG. […] The drugs were administered intraperitoneally.

[6] = tested on: A375-melanoma cells; test: Cytotoxicity in cultured A375-melanoma cells (XTT cell viability); assay type: cell-based; conditions: Homo sapiens, read-out: IC50 (drug concentration that inhibited 50% of the cell growth)
Description: Cells were grown in RPMI 1640 (Gibco, UK) supplemented with 10% FBS (Gibco, UK) 2 mM of L-glutamin (Gibco, UK), 20 mM HEPES buffer (Beit-Haemek, Israel), 100 units/ml of penicillin, and 100 μg/ml of streptomycin (Gibco, UK). Cells were cultured in humidified atmosphere containing 5% CO2 at 37° C. Medium was routinely changed twice a week, and cells were sub-cultured with 0.25% trypsin/EDTA (Beit-Haemek, Israel) when reaching 85% confluence.
ATT-11T was produced by Aptuit-Laurus (India). The compound was dissolved in DMSO. […] The cells were incubated for 24 hours at 37° C. with serial dilutions of ATT-11T (or CPT 11), dissolved in growing medium. Cell viability was then determined, using the XTT reagent (Beit-Haemek, Israel). At the end of the incubation period, tetrazolium dye was added, and formation of a colored product formazan was measured at 450 nm using a microplate reader (ELx800, Bio-Tek instruments Inc.). Cell viability vs. drug concentration was plotted, and data were fitted with a non-linear regression analysis using GraphPad prisma ver.5.0 software. […]

[7] = tested on: OVCAR-3 ovarian carcinoma tumors; test: Xenograft model of ovarian carcinoma; assay type: in vivo, athymic nude mice; conditions: for growth inhibition vs. the control group: one week post last administration
Excerpt: Tumor-bearing mice, injected only with the vehicle solution served as the control group.

[8] = Adverse effects and body weight in A375 tumor-bearing mice; assay type: in vivo, nude mice; conditions: for gain of initial body weight: day 1 of treatment up to day 29 of inoculation
Description: For the evaluation of potential adverse effects of ATT-11T, nude mice, bearing the A375 melanoma tumors and treated with ATT-11T as described above, were monitored for adverse effects immediacy after drug administration, and also twice a week, through one day after last dose. The evaluation protocol consisted of gross observation, registration of abnormal signs, and determination of body weight. Potential body weight loss (BWL) was calculated as % BWL=100−(BWdays/BWday1×100), where day 1 is the first day of treatment and day x is the day of assessment thereafter.

[9] = tested on: A375 melanoma tumors; test: Xenograft model of melanoma: tumor regression, growth inhibition and growth delay; assay type: in vivo, athymic nude mice; conditions: for Tumor volume inhibition (TVI): one week after the last dose; for tumor growth at day 30 after the last dose: 58 days after tumor cell inoculation; for growth inhibition: one week after last administration
Description: Tumor-bearing mice, injected only with the vehicle solution served as controls.
ATT11-T (Aptuit-Luarus, India) was administered in a vehicle as described above. Tumor-bearing mice injected only with the vehicle solution served as controls. […] Tumor volume was evaluated as described above.
Drug-induced delay in tumor growth was assessed by two measures: (i). Tumor volume inhibition (TVI %) at one week after the last treatment in treated versus control tumors, which was calculated according to the Formula TVI (%)=(1-T/C)×100, where T and C are the tumor volume of the treated and control groups, respectively; and (ii). Tumor growth delay (TGD), assessed as the time period (days) of treatment-induced delay in tumor reaching a pre-determined volume of 3,500 mm^3, as compared to the vehicle-treated controls.

[10] = 20 mg/kg i.v. once a week for 3 weeks
[11] = 40 mg/kg i.v. once a week for 3 weeks

Structure (SMILES): CCc1c2c(nc3ccc(OC(=O)N4CCC(N5CCCCC5)CC4)cc13)-c1cc3c(c(=O)n1C2)COC(=O)[C@]3(O)CC [CPT-11, irinotecan, reference compound]
- plasma level of derived SN-38 at 24 hours after administration ([1]; dogs): below detection level
- % tumor growth delay (% TGD) to 1,000 mm^3 ([2]; 18 mg/kg i.v. (equimolar to 20 mg/kg ATT-11T)): 43%
- % tumor growth delay (% TGD) to 1,000 mm^3 ([2]; 36 mg/kg i.v. (equimolar to 40 mg/kg ATT-11T)): 76%
- tumor growth inhibition (TGI) vs. control tumors ([2]; 36 mg/kg i.v. once a week for 3 weeks, one week after the last administration): 42%
- tumor growth inhibition vs. the control group ([3]; 36 mg/kg i.v. once a week for three weeks): 67%
- MTD [4]: 100 mg/kg
- tumor growth inhibition ([5]; […]): 85%
- IC50 ([6]; A-375, A375 cells, 24 hours incubation, XTT): 10.1 µM
- growth inhibition vs. the control group ([7]; 18 mg/kg i.v. once a week for three weeks): 83%

Structure (SMILES): CCc1c2c(nc3ccc(OC(=O)N4CCC(CCC(C)(COC(C)(C)C)COC(C)(C)C)CC4)cc13)-c1cc3c(c(=O)n1C2)COC(=O)C3(O)CC (centres unmarked) [ATT-11T]
- plasma level of derived SN-38 at 48 hours after administration ([1]; dogs): still detectable
- AUC of ATT-11T relative to that of CPT-11 ([1]; dogs, parent drug): 4 fold
- increase in t1/2 of ATT-11T over CPT-11 ([1]; dogs, parent drug): 3.8 fold
- half-life ([1]; dog, in vivo, iv, female beagle dogs, read-out: plasma half-life (t1/2) of the parent drug (converted)): 25.6 h
- % tumor growth delay (% TGD) to 1,000 mm^3 [2, 10]: 86%
- days post tumor inoculation to reach average tumor volume of 1,000 mm^3 [2, 10]: 39 days
- tumor growth inhibition (TGI) ([2]; 20 mg/kg i.v. once a week for 3 weeks, one week after the last administration): 48%
- % tumor growth delay (% TGD) to 1,000 mm^3 [2, 11]: 152%
- days post tumor inoculation to reach average tumor volume of 1,000 mm^3 [2, 11]: 53 days
- tumor growth inhibition (TGI) vs. control tumors ([2]; 40 mg/kg i.v. once a week for 3 weeks, one week after the last administration): 86%
- tumor growth inhibition vs. the control group ([3]; 40 mg/kg i.v. once a week for three weeks): 92%
- MTD at 3 weeks [4]: 150 mg/kg
- gain of initial body weight ([8]; 5 mg/kg): 7%
- gain of initial body weight ([8]; 20 mg/kg): 5%
- tolerability (adverse effects, weight loss) ([8]; both doses, 5 and 20 mg/kg): well-tolerated
- tumor growth 136 days post last treatment (161 days post tumor inoculation) ([5]; MTD 150 mg/kg i.p.): no tumor growth
- tumor growth inhibition ([5]; MTD 150 mg/kg intraperitoneally once a week for three weeks): 100%
- IC50 ([6]; A-375, 24 h): 3.3 µM
- Tumor volume inhibition (TVI) ([9]; 5 mg/kg i.v. twice a week for three weeks): 100%
- tumor growth at day 30 after the last dose ([9]; 5 mg/kg): little
- Tumor volume inhibition (TVI) ([9]; 20 mg/kg i.v. twice a week for three weeks): 100%
- tumor growth at day 30 after the last dose ([9]; 20 mg/kg): no growth
- growth inhibition ([9]; ATT-11T 5 mg/kg i.v. three times a week for three weeks): 100%
- growth inhibition ([9]; ATT-11T 20 mg/kg i.v. three times a week for three weeks): 100%
- growth inhibition vs. the control group ([7]; 20 mg/kg i.v. once a week for three weeks): 99%
- average tumor volume ([7]; 20 mg/kg i.v., day 42 (21 days post last dose)): 46 mm^3
